Assay results as given in patent US10005792B2, “Aminoindane-, aminotetrahydronaphthalene- and aminobenzocyclobutane-derived PRMT5-inhibitors” (CTXT PTY LTD, priority 2014, dated 2018).

Legend:
[1] = system: symmetrical dimethylation of arginine (Di-Methyl Histone H4R3) in cell line TE11; test: PRMT5 Biomarker Assay; format: cell-based; settings: Homo sapiens, TE-11; TE11 cells, 72 h incubation, EpiQuik Global Di-Methyl Histone H4R3 ELISA, corrected for total protein
Description: (§1) Compounds of the invention may be tested for potency to inhibit symmetrical dimethylation of arginine in the following assay:
The cell line TE11 was seeded at a density of 12,000 cells per well in 96 well tissue culture plates in DME medium and 10% foetal bovine serum, and allowed to adhere overnight under standard culture conditions (37° C., 5% CO2). Compound dilutions prepared in DMSO were added to the medium, with negative control wells reserved for treatment with DMSO only and positive controls receiving a potent PRMT5 inhibitor. The concentration of the inhibitor had been previously determined to give maximum inhibition of the methylation. After incubation for 72 h, cells were washed twice in ice-cold PBS, lysed in lysis buffer (20 mM Tris pH 7.4, 135 mM NaCl, 1.5 mM MgCl2, 1 mM EGTA, 10% glycerol and 1% Triton-X100), centrifuged at 15,000×g and the supernatants collected for subsequent analysis. The methylation level was determined using the EpiQuik™ Global Di-Methyl Histone H4R3 Quantification ELISA Kit (Epigentek, Farmingdale, N.Y.) as per the manufacturer's recommendations; in parallel the total protein amount in the lysate was quantified using a Lowry protein assay. The methylation level was corrected for the total protein amount of each sample, normalised to the controls, and the data fitted against a four-parameter logistic model to determine the 50% inhibitory concentration (IC50).

[2] = molecular target: T1, Full-length PRMT5 enzyme co-expressed with MEP50 (Homo sapiens (Human), UniProt O14744); test: PRMT5 Biochemical Assay; settings: 200 nM histone H4 derived peptide substrate, 1 μM S-Adenosyl methionine, 4 hours at 37° C, Transcreener EPIGEN fluorescence polarisation
T1 sequence (O14744 whole entry): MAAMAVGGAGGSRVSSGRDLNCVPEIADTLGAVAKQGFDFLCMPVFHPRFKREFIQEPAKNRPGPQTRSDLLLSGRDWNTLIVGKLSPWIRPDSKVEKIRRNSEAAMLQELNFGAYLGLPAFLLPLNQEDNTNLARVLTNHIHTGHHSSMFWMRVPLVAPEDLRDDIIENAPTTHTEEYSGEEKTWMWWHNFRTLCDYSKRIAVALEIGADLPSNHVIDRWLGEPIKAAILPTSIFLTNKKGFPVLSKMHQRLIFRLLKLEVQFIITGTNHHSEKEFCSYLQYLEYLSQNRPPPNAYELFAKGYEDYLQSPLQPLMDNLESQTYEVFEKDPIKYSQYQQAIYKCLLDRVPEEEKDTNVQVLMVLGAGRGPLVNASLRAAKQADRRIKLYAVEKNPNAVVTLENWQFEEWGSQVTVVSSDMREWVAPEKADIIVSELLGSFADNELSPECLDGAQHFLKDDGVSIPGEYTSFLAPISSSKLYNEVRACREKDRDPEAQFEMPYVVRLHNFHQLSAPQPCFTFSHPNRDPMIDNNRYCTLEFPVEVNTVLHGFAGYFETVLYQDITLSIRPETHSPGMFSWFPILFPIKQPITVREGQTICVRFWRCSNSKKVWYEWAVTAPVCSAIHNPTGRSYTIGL
T1 sequence (Q9BQA1 whole entry partner): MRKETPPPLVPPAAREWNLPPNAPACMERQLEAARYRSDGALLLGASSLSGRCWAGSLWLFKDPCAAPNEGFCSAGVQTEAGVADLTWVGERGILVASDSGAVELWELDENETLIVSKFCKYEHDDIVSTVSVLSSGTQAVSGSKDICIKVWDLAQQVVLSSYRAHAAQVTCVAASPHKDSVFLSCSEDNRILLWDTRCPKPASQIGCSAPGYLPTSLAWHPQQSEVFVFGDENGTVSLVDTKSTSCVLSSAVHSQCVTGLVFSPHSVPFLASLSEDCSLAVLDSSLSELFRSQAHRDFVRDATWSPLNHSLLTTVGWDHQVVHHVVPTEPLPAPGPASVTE
Description: Compounds of the invention may be tested for in vitro activity in the following assay: A histone H4 derived peptide is used as substrate (amino acid sequence: […]NH2). Full-length PRMT5 enzyme (NCBI Reference sequence NP-006100.2) was co-expressed with Hiss-MEP50 in insect cells and purified via Nickel immobilized metal affinity and gel filtration chromatography (“the enzyme”).
The 6 μL assay reactions are run in Greiner brand black 384-well low volume plates. All reactions contained assay buffer (phosphate buffered saline, 0.01% (v/v) Tween-20, 0.01% (w/v) albumin from chicken egg white, 1 mM dithiothreitol, 200 nM peptide substrate, 1 μM S-Adenosyl methionine, and 15 ng/reaction enzyme, with the enzyme being omitted from negative control reactions. Compounds were added in a volume of 100 nL from dilution series prepared in DMSO, positive and negative control reactions receiving the same volume DMSO without compound. The plates were sealed with adhesive seals and incubated for 4 hours at 37° C. Reaction progress was measured using the Transcreener™ EPIGEN methyltransferase assay (BellBrook Labs, Madison, Wis.) as recommended by the manufacturer. To each reaction 2 μL detection mix were added, containing coupling enzymes, fluorescence polarisation tracer, and AMP antibody. Plates were incubated for 90 min before being read on a PerkinElmer EnVision™ plate reader in fluorescence polarisation mode.

[3] = system: symmetrical dimethylation of arginine (Di-Methyl Histone H4 Arginine 3) in cell line TE11; test: Revised PRMT5 Biomarker Assay; settings: Homo sapiens, TE-11; TE11 cells, 72 hours incubation, immunofluorescence, corrected for cell number (Hoechst 33342), plate reader based
Description: as §1
The cell line TE11 was seeded at a density of 6,000 cells per well in 96 well optical quality tissue culture plates in DME medium and 10% foetal bovine serum, and allowed to adhere for 5 hours under standard culture conditions (37 degree Celsius, 5% CO2). Compound dilutions prepared in DMSO were added to the medium, with negative control wells reserved for treatment with DMSO only and positive controls receiving a potent PRMT5 inhibitor compound at 1 μM concentration. After incubation for 72 hours, the cells were fixed with 3.7% formaldehyde in PBS for 30 minutes at room temperature, washed with phosphate buffer saline and blocked with Odyssey blocking buffer (LI-COR, Lincoln, Nebr.). Rabbit anti-Di-Methyl Histone H4 Arginine 3 specific antibody (Epigentek) in Odyssey blocking buffer was added and incubated for 14 hours at 4 degree Celsius. After washing, anti-rabbit secondary antibody labelled with Alexa647 dye (LifeTechnologies) and Hoechst 33342 (1 μg/mL, SigmaAldrich) were added for 1 hour incubation. Plates were washed and read on a PerkinElmer Envision 2103 in fluorescence intensity scanning mode (24 scans across the well area). The methylation level information was corrected for the number of cells as expressed by the Hoechst 33342 stain, converted to percent inhibition relative to controls on the same plate and the data fitted against a four-parameter logistic model to determine the 50% inhibitory concentration (IC50 plate-reader based). Alternatively, the plates were imaged on a PerkinElmer Phenix high content imaging platform. Using a Columbus image analysis pipeline, individual nuclei were located by Hoechst 33342 stain and the methylation level was calculated from the Alexa647-related intensity in the same area. The resulting mean intensity per cell was directly converted to percent inhibition as outlined above (IC50, imager based)).

[4] = molecular target: T1, Full-length PRMT5 enzyme co-expressed with MEP50; test: Revised PRMT5 Biochemical Assay; settings: 1 μM histone H4 derived peptide substrate, 1 μM S-Adenosyl methionine, 4 hours at 37 degree Celsius, Transcreener EPIGEN fluorescence polarisation
Procedure, shortened: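 Full-length human PRMT5 co-expressed with His-MEP50 in insect cells (15 ng/reaction), 1 μM H4-derived peptide and 1 μM SAM in PBS/0.01% Tween-20/egg albumin/1 mM DTT, 4 h at 37 °C. SAH formation read by Transcreener EPIGEN fluorescence polarisation after 90 min detection. IC50 from four-parameter fit of plate-normalised % inhibition.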

Structure (SMILES) | IC50 [1] | IC50 [2] | IC50 [3] | IC50 [4]
Cn1cc(Oc2ccc(C(=O)NC[C@H](O)CNC3Cc4ccccc4C3)cc2)cn1 [Compound 13, (R)-N-(3-((2,3-Dihydro-1H-inden-2-yl)amino)-2-hydroxypropyl)-4-((1-methyl-1H-pyrazol-4-yl)oxy)benzamide] | 348 nM | 634 nM | – | –
O=C(NC[C@@H](O)CNC1Cc2ccccc2C1)c1ccc(Cl)cc1 [Compound 14, (S)-4-Chloro-N-(3-((2,3-dihydro-1H-inden-2-yl)amino)-2-hydroxypropyl)benzamide] | 210 nM | 445 nM | – | –
O=C(NC[C@@H](O)CNC1Cc2ccccc2C1)c1ccc(C(=O)N2CCOCC2)cc1 [Compound 15, (S)-N-(3-((2,3-Dihydro-1H-inden-2-yl)amino)-2-hydroxypropyl)-4-(morpholine-4-carbonyl)benzamide] | 30 nM | 218 nM | 0.025 µM | –
O=C(NC[C@@H](O)CNC1Cc2ccccc2C1)c1ccc(N2CCOCC2)nc1 [Compound 16, (S)-N-(3-((2,3-Dihydro-1H-inden-2-yl)amino)-2-hydroxypropyl)-6-morpholinonicotinamide] | 259 nM | 301 nM | – | –
Cn1cc(Oc2ccc(C(=O)NC[C@@H](O)CNC3Cc4ccccc4C3)cc2)cn1 [Compound 18, (S)-N-(3-((2,3-dihydro-1H-inden-2-yl)amino)-2-hydroxypropyl)-4-((1-methyl-1H-pyrazol-4-yl)oxy)benzamide] | 92 nM | 238 nM | – | –
O=C(NCC(O)CNC1Cc2ccccc2C1)c1ccc(C(=O)N2CCCCC2)cc1 (centres unmarked) [Compound 22, N-(3-((2,3-Dihydro-1H-inden-2-yl)amino)-2-hydroxypropyl)-4-(piperidine-1-carbonyl)benzamide] | 18 nM | 171 nM | 0.106 µM | –
O=C(NCC(O)CNC1Cc2ccccc2C1)c1ccc(-c2ccccc2)cc1 (centres unmarked) [Compound 24, N-(3-((2,3-Dihydro-1H-inden-2-yl)amino)-2-hydroxypropyl)-[1,1′-biphenyl]-4-carboxamide] | 363 nM | 425 nM | – | –
O=C(NCC(O)CNC1Cc2ccccc2C1)c1ccc(C(=O)N2C3CCC2COC3)cc1 (centres unmarked) [Compound 40, 4-(3-Oxa-8-azabicyclo[3.2.1]octane-8-carbonyl)-N-(3-((2,3-dihydro-1H-inden-2-yl)amino)-2-hydroxypropyl)benzamide] | 2 nM | 57 nM | 0.021 µM | –

Other lines, results leading:

IC50 [1] | IC50 [2] | IC50 [3] | IC50 [4] | Structure (SMILES)
1910 nM | 905 nM | – | – | O=C(NCC(O)CNC1CCc2ccccc2C1)c1ccc(Cl)cc1 (centres unmarked) [Compound 30, 4-Chloro-N-(2-hydroxy-3-((1,2,3,4-tetrahydronaphthalen-2-yl)amino)propyl)benzamide]
8 nM | 50 nM | 0.04 µM | 155 nM | CC(=O)N1CCC(Nc2cc(C(=O)NCC(O)CNC3Cc4ccccc4C3)ccn2)CC1 (centres unmarked) [Compound 35, 2-((1-Acetylpiperidin-4-yl)amino)-N-(3-((2,3-dihydro-1H-inden-2-yl)amino)-2-hydroxypropyl)isonicotinamide]
19 nM | 95 nM | – | 163 nM | C[C@@H]1COCCN1C(=O)c1ccc(C(=O)NC[C@@H](O)CNC2Cc3ccccc3C2)cc1 [Compound 37, N—((S)-3-((2,3-Dihydro-1H-inden-2-yl)amino)-2-hydroxypropyl)-4-((R)-3-methylmorpholine-4-carbonyl)benzamide]
11 nM | 210 nM | 0.053 µM | 310 nM | C[C@H]1COCCN1C(=O)c1ccc(C(=O)NC[C@@H](O)CNC2Cc3ccccc3C2)cc1 [Compound 38, N—((S)-3-((2,3-Dihydro-1H-inden-2-yl)amino)-2-hydroxypropyl)-4-((S)-3-methylmorpholine-4-carbonyl)benzamide]
7 nM | – | 0.361 µM | 281 nM | COc1cc(C(=O)N2CCOCC2)ccc1C(=O)NC[C@@H](O)CNC1Cc2ccccc2C1 [Compound 98, (S)-N-(3-((2,3-dihydro-1H-inden-2-yl)amino)-2-hydroxypropyl)-2-methoxy-4-(morpholine-4-carbonyl)benzamide]
